From patent publication US3954769A, “Dibenzo[b,f]thiepins” (Hoffman-La Roche Inc., priority 1973, dated 1976)
“Also recorded” adds a separate entry of the source.

Tests used:
[1] = test system: homovanillinic acid (turnover of dopamine in the basal ganglions); test: Determination of homovanillinic acid (HVA), turnover of dopamine in brain; type: in vivo, rats; conditions: for activity in HVA test (in words): compared with chlorpromazine; for Increase in HVA, %: rats, two hours prior to being killed, titer in untreated rats set at 100%
Experimental: II. Determination of Homovanillinic Acid
Two hours prior to being killed, rats are injected with the test substance.
Thereafter, the homovanillinic acid is extracted from the supernatant portion of a homogenous mixture of the brains into butyl acetate and later into aqueous solution and is oxidized with potassium ferric cyanide to a fluorescent dimer. […] The homovanillinic acid titer in untreated rats is arbitrarily set at 100%.

mice = test: Determination of toxicity in mice (24-hour-values); type: in vivo; conditions: in words
Source text: (§1) III. Determination of toxicity

[2] = Determination of toxicity in mice (24-hour-values); type: in vivo; conditions: mouse, in vivo, po, read-out: ED50 (toxicity)
Source text: as §1

rats = test: Determination of cataleptic effect (undesired side effect); type: in vivo; conditions: in words
Experimental: (§2) I. Determination of cataleptic effect (undesired side effect)
(§3) A cataleptic effect ("wax-like rigidity", that is, abnormally long retention of an enforced body position) is considered to be a disturbing side effect with central depressants and neuroleptically active compounds and indicates motor disturbances. […] The following compounds were tested:
(§4) The test animals are considered to be cataleptic when the homolateral extremities remain in the crossed position for at least 10 seconds. The number of cataleptic animals is recorded every 30 minutes over a 6-hour period. The ED50 is the dose at which 50% of the animals are cataleptic.

[3] = as above; type: in vivo, rats; conditions: rat, in vivo, ip; rats, intraperitoneally; recorded every 30 minutes over a 6-hour period; read-out: ED50 (dose at which 50% of the animals are cataleptic)
Experimental: as §2, §3, §4

| Structure (SMILES) | activity in HVA test (in words) [1] | Increase in HVA, % ([1]; 50 mg/kg. p.o.) [%] | toxicity (in words) (mice) | LD50 at 24 h [2] [mg/kg] | cataleptic effect (in words) (rats; maleate) | TD50 at 6 h [3] [mg/kg] | Increase in HVA, % ([1]; 20 mg/kg. p.o.) [%] | cataleptic effect (in words) (rats) |
| --- | --- | --- | --- | --- | --- | --- | --- | --- |
| COc1ccc2c(c1)CC(N1CCN(C)CC1)c1cc(SC)ccc1S2.O=C(O)/C=C\C(=O)O (centres unmarked) [Product A, 1-[10,11-dihydro-2-methoxy-8-(methylthio)-dibenzo[b,f]thiepin-10-yl]-4-methylpiperazine maleate] | somewhat less active than chlorpromazine | 185 | superior to chlorpromazine | 1880 | no cataleptic effect; also recorded: complete absence of cataleptic side effect | > 100 | – | – |
| CN(C)CCCN1c2ccccc2Sc2ccc(Cl)cc21 [Chlorpromazine, reference compound] | – | – | – | – | – | – | 320 | does demonstrate cataleptic effects |
| CSc1ccc2c(c1)C(N1CCN(C)CC1)Cc1cc(C)ccc1S2.O=C(O)/C=C\C(=O)O (centres unmarked) [Product B, 1-[10,11-dihydro-2-methyl-8-(methylthio)-dibenzo[b,f]thiepin-10-yl]-4-methylpiperazine maleate] | nearly as potent as that of chlorpromazine | 320 | superior to chlorpromazine | 450 | considerably lower cataleptic effect than chlorpromazine; also recorded: superior to chlorpromazine due to the lower cataleptic side effect | 25 | – | – |
